Assay results reported in patent EP0488301A1, “New benzopyran compounds with pharmacological activity” (J. URIACH & CIA. S.A., priority 1990, dated 1992).
Where two headings read alike, the source gives them in different places.

Assays:
[1] = tested on: trachea isolated from guinea pig; test: Test 3: Direct relaxation of the trachea isolated from guinea pig; format: cell-based; settings: Cavia porcellus, 50% of the maximum relaxation (relaxation induced by isoproterenol at 1x10⁻⁶ M), cumulative addition, read-out: EC₅₀
Protocol: Test 3 -Direct relaxation of the trachea isolated from guinea pig.
This test was performed according to the experimental model described by Emmerson, J. and Mackay, D. (J. Pharm. Pharmacol.,1979,31, 798). Tracheas were extracted from male guinea pigs of 400 g of body weight, which had been stunned by a blow in the head. Then, tracheas were cut in zigzag and placed into an isolated organ bath (Letica) containing Krebs-Henseleit solution at 37°C and were bubbled with carbogen (95% O₂ and 5% CO₂). The relaxation of the trachea was measured using an isometric force transducer. The basal tension was 0.5 g. The tested compounds were accumulatively added to the bath and the effective concentration which produces a 50% of the maximum relaxation (EC₅₀) was calculated.

[2] = tested on: portal vein isolated from rat; test: Test 1: Inhibition of the contraction induced by noradrenaline in portal vein isolated from rat; format: cell-based; settings: contraction induced by noradrenaline (3µM), compounds incubated for 30 minutes, 50% inhibition versus the basal response, read-out: IC₅₀
Protocol: Test 1: Inhibition of the contraction induced by noradrenaline in portal vein isolated from rat.
Portal vein was extracted from adult male rats (between 200 and 250 g of body weight), which had been stunned by a blow in the head. Portal vein was installed into an isolated organ bath (Letica) containing a physiological saline solution (Hamilton et al., Br. J. Pharmacol., 1986, 88, 103-111) at 37 °C and a gas bubbler (5% CO₂ and 95% O₂). Contractions were induced by noradrenaline (3µM) and were reverted after thoroughly washing with physiological saline solution. Portal vein contraction was measured with an isometric force transducer and with an initial tension of 1 g. After two contractions with noradrenaline, performed in order to measure the tissue's basal response, the tested compounds were incubated for 30 minutes and a new contraction was induced. The concentration that produces a 50% inhibition (IC₅₀) versus the basal response was calculated.

[3] = tested on: Spontaneously hypertense rats; test: Test 2: Lowering of the arterial pressure in conscious hypertense rats; format: in vivo, rat; settings: dose which produces a decrease of 30 mm Hg of the systolic arterial pressure, 3 doses and 3 animals per dose; for ED (30 mmHg decrease): Rattus norvegicus, po, read-out: ED₃₀; for ED₃₀: p.o.
Protocol: Test 2: Lowering of the arterial pressure in conscious hypertense rats.
Spontaneously hypertense rats (between 200 and 250 g of body weight) of more than 8 weeks of age have been used. Diastolic and systolic arterial pressure of the rat was measured at the caudal artery using a special sphygnomanometer (Letica 5007 and 5007/4) attached to the animal's tail. To ensure rapid and reliable data, animals were placed in a heating plate at 37°C, with the aim to produce a vasodilatation that ensured a better fixation of the rat tail to the transducer chamber. During the experiment, rats are conscious and fixed to a clamp. The tested products were administered orally. Arterial pressure was measured every 30 minutes and 10 minutes before the administration of the tested compound. The ED₃₀ (dose which produces a decrease of 30 mm Hg of the systolic arterial pressure) was calculated for each compound, using 3 doses and 3 animals per dose.

EC50 [1] | IC50 ([2]; Rattus norvegicus, 0.5 h) | IC50 [2] | SMILES | ED (30 mmHg decrease) [3] | ED₃₀ [3]
2500 nM | 2500 nM | – | CC1(C)Oc2ccc(C#N)cc2[C@@H](NC(=O)[C@@H]2CCCN2C(=O)Oc2ccccc2)[C@@H]1O (mixture of isomers) [Compound 34, Trans 3,4-dihydro-2,2-dimethyl-3-hydroxy-4-[(2S)-1-phenoxycarbonyl-2-pyrrolidinylcarbonylamino]-2H-1-benzopyran-6-carbonitrile] | 3 mg/kg | –
900 nM | – | – | CC1(C)Oc2ccc(C#N)cc2[C@@H](NC(=O)[C@@H]2CCCN2C(=O)OCc2ccccc2)[C@@H]1O (mixture of isomers) [Compound 35, Trans 3,4-dihydro-2,2-dimethyl-3-hydroxy-4-[(2S)-1-benzyloxycarbonyl-2-pyrrolidinylcarbonylamino]-2H-1-benzopyran-6-carbonitrile] | 0.05 mg/kg | –
– | 500 nM | – | COc1cccc(COC(=O)N2CCC[C@H]2C(=O)N[C@@H]2c3cc(C#N)ccc3OC(C)(C)[C@H]2O)c1 (mixture of isomers) [Compound 58, Trans 3,4-dihydro-2,2-dimethyl-3-hydroxy-4-[(2S)-1-[(3-methoxyphenyl)methyloxycarbonyl]-2-pyrrolidinylcarbonylamino)-2H-1-benzopyran-6-carbonitrile] | < 1 mg/kg | –
100 nM | 200 nM | – | CC1(C)Oc2ccc(C#N)cc2[C@@H](NC(=O)[C@@H]2CCCN2C(=O)OCc2cccc(Cl)c2)[C@@H]1O (mixture of isomers) [Compound 60, Trans 3,4-dihydro-2,2-dimethyl-3-hydroxy-4-[(2S)-1-[(3-chlorophenyl)methyloxycarbonyl]-2-pyrrolidinylcarbonylamino)-2H-1-benzopyran-6-carbonitrile] | < 0.5 mg/kg | –
1000 nM | 800 nM | – | CC1(C)Oc2ccc(C#N)cc2[C@@H](NC(=O)C2CCCCN2C(=O)Oc2ccccc2)[C@@H]1O (relative stereo) [Compound 18, Trans 3,4-dihydro-2,2-dimethyl-3-hydroxy-4-(1-phenyloxycarbonyl-2-piperidinylcarbonylamino)-2H-1-benzopyran-6-carbonitrile] | 0.7 mg/kg | –
4500 nM | 800 nM | – | CC1(C)Oc2ccc(C#N)cc2[C@@H](NC(=O)C2CCCCN2C(=O)OCc2ccccc2)[C@@H]1O (relative stereo) [Compound 19, Trans 3,4-dihydro-2,2-dimethyl-3-hydroxy-4-(1-benzyloxycarbonyl-2-piperidinylcarbonylamino)-2H-1-benzopyran-6-carbonitrile] | 0.7 mg/kg | –
– | 2400 nM | – | CC1(C)Oc2ccc(C#N)cc2[C@H](NC(=O)[C@@H]2CCCN2C(=O)OCc2ccccc2)[C@H]1O [35(A), Trans (3R,4S)-3,4-dihydro-2,2-dimethyl-3-hydroxy-4-[(2S)-1-benzyloxy-carbonyl-2-pyrrolidinylcarbonylamino]-2H-1-benzopyran-6-carbonitrile] | – | –
– | 200 nM | – | CC1(C)Oc2ccc(C#N)cc2[C@@H](NC(=O)[C@@H]2CCCN2C(=O)OCc2ccccc2)[C@@H]1O [35(B), Trans (3S,4R)-3,4-dihydro-2,2-dimethyl-3-hydroxy-4-[(2S)-1-benzyloxy-carbonyl-2-pyrrolidinylcarbonylamino]-2H-1-benzopyran-6-carbonitrile] | – | –

Continued, compound first:

SMILES | EC50 [1] | IC50 ([2]; Rattus norvegicus, 0.5 h) | IC50 [2] | ED (30 mmHg decrease) [3] | ED₃₀ [3]
CC1(C)Oc2ccc(C#N)cc2[C@@H](NC(=S)N2CCCC2)[C@@H]1O (relative stereo) [Compound 1, Trans 3,4-dihydro-2,2-dimethyl-3-hydroxy-4-(1-pyrrolidinylthiocarbonylamino)-2H-1-benzopyran-6-carbonitrile] | – | 3100 nM | – | > 3 mg/kg | –
CC1(C)Oc2ccc(C#N)cc2[C@@H](NC(=S)N2CCCCC2)[C@@H]1O (relative stereo) [Compound 3, Trans 3,4-dihydro-2,2-dimethyl-3-hydroxy-4-(1-piperidinylthiocarbonylamino)-2H-1-benzopyran-6-carbonitrile] | 800 nM | 4200 nM | – | 0.5 mg/kg | –
CN1CCN(C(=S)N[C@@H]2c3cc(C#N)ccc3OC(C)(C)[C@H]2O)CC1 (relative stereo) [Compound 7, Trans 3,4-dihydro-2,2-dimethyl-3-hydroxy-4-(4-methyl-1-piperazinylthiocarbonylamino)-2H-1-benzopyran-6-carbonitrile] | 1300 nM | 5300 nM | – | 0.17 mg/kg | –
CC(C)(C)OC(=O)N1CCCCC1C(=O)N[C@@H]1c2cc(C#N)ccc2OC(C)(C)[C@H]1O (relative stereo) [Compound 13, Trans 3,4-dihydro-2,2-dimethyl-3-hydroxy-4-(1-tert-butoxycarbonyl-2-piperidinylcarbonylamino)-2H-1-benzopyran-6-carbonitrile] | 6000 nM | 31000 nM | – | 0.18 mg/kg | –
CC1(C)Oc2ccc(C#N)cc2[C@@H](NC(=O)C2CCCCC2)[C@@H]1O (relative stereo) [Compound 45, Trans 4-cyclohexylcarbonylamino-3,4-dihydro-2,2-dimethyl-3-hydroxy-2H-1-benzopyran-6-carbonitrile] | 400 nM | 3500 nM | – | 0.65 mg/kg | –
CC(C)COC(=O)N1CCC[C@H]1C(=O)N[C@@H]1c2cc(C#N)ccc2OC(C)(C)[C@H]1O (single isomer, unassigned) [33(A)] | – | – | > 10000 nM | – | 0.3 mg/kg
CC(C)COC(=O)N1CCC[C@H]1C(=O)N[C@@H]1c2cc(C#N)ccc2OC(C)(C)[C@H]1O (single isomer, unassigned) [33(B)] | 9100 nM | – | 300 nM | – | <0.1 mg/kg
CC(C)(C)OC(=O)N1CCC[C@H]1C(=O)N[C@H]1c2cc(C#N)ccc2OC(C)(C)[C@@H]1O [28(A), Trans (3R,4S)-3,4-dihydro-2,2-dimethyl-3-hydroxy-4-[(2S)-1-tert-butoxycarbonyl-2-pyrrolidinylcarbonylamino]-2H-1-benzopyran-6-carbonitrile] | – | > 10000 nM | – | – | –
CC(C)(C)OC(=O)N1CCC[C@H]1C(=O)N[C@@H]1c2cc(C#N)ccc2OC(C)(C)[C@H]1O [28(B), Trans (3S,4R)-3,4-dihydro-2,2-dimethyl-3-hydroxy-4-[(2S)-1-tert-butoxycarbonyl-2-pyrrolidinylcarbonylamino]-2H-1-benzopyran-6-carbonitrile] | 4800 nM | 2600 nM | – | – | 1.0 mg/kg
